The results in this text go back to patent US20200297617A1, “COMPOSITION FOR SKIN EXTERNAL USE FOR REDUCING WRINKLE AND COSMETIC PRODUCT” (Guangdong Bawei Biotechnology Co., Ltd., priority 2019, published 2020).

This assay relates to MMP-1. Kind of assay: Test 2: Analysis of inhibition of MMP-1 expression (MMP-1 ELISA, UVB-irradiated HS68 cells). The conditions noted are these: UVB 30 mJ/cm2, compositions 1% mass concentration (RA 5 μM), 48 h, unirradiated control = 100, UV control = 194. Type of assay: cell-based, human. The protocol:
Test 2: Analysis of Inhibition of MMP-1 Expression
Human fibrocytes (HS68 cells, purchased from ATCC (Rockville, Md., USA)) were placed in a well plate at a density of 7.5×10^4 cells/well, and incubated in DMEM containing 10% FBS for 24 h, and then washed with PBS (phosphate buffer), followed by the addition of 0.5 ml of PBS therein, the resultant incubated cells were irradiated with ultraviolet rays (UVB30 mJ/cm2) to induce the expression of MMP-1. After the replacement with serum-free DMEM, the resultant product was treated with the compositions (having a mass concentration of 1%) of the examples and the contrast examples. The amount of supernatant obtained after 48 h incubation was determined using an MMP-1 ELISA kit. The human dermal fibroblasts HS68 were treated with ultraviolet rays to increase the expression of MMP-1, and then the resultant HS68 cells were treated with each sample to study whether the expression of MMP-1 was decreased. In the above, retinoic acid (RA, 5 μM, which is known to inhibit the expression of MMP-1) was used as a positive control group.
Background: In an ELISA, binding on a coated surface is turned into a signal by an enzyme label.

Take `CC1=C(/C=C/C(C)=C/C=C/C(C)=C/C(=O)O)C(C)(C)CCC1` [RA, retinoic acid]: the “Effect on inhibition of MMP-1 expression: proportions relative to the control group (%)” value was 118%.
